In ChEMBL document CHEMBL1201862, “PubChem BioAssay data set” (2004):
Activity calls are given as the source filed them.

Key:
[1] = inhibitors of intracellular T. cruzi replication, confirmation, NIH3T3 host cells, beta-gal luminescence (AID 2044); format: functional, cell-based;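 further: intracellular parasites grown in NIH/3T3 mouse fibroblasts as host cells; luminescent beta-galactosidase reporter signal from transgenic T. cruzi replicating inside host cells; inhibitors lower the luminescence signal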
[2] = THP-1 cell cytotoxicity, dose response, cytotoxicity control for non-replicating M. tuberculosis project (AID 489025); format: functional
[3] = biological target: Dual specificity protein phosphatase 3 (Homo sapiens, UniProt P51452); assay: SAR VHR1 Fluorescent Assay for In Vitro dose response studies Set 3. [Related pubchem assays (depositor defined):AID1654, AID1661, AID1878]; format: functional
Dual specificity protein phosphatase 3, sequence (P51452 whole entry): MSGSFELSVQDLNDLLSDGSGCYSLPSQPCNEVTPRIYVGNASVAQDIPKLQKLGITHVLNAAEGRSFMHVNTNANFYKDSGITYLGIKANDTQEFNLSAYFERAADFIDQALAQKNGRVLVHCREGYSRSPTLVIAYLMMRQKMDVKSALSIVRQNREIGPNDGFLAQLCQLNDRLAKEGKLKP

[4] = Vero E6 cell cytotoxicity, dose response, cytotoxicity control for non-replicating M. tuberculosis project, secondary assay (AID 492998); format: functional, VeroE6; conditions: Vero C1008
[5] = HepG2 cell cytotoxicity, dose response, cytotoxicity control for non-replicating M. tuberculosis project (AID 489018); format: functional; conditions: Mycobacterium tuberculosis
[6] = cytotoxicity toward NIH3T3 fibroblasts, dose response, counter-screen, cell-based, ATP luminescence, mouse fibroblasts (AID 2010); format: functional;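 further: cells exposed to compound for about 90 hours before reading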
[7] = microbe, parasite or virus in culture; format: functional; conditions: Mycobacterium tuberculosis
A-375 = assay: MITF: Counter assay: A375 proliferation Measured in Cell-Based System Using Plate Reader - 2084-03_Inhibitor_Dose_DryPowder_Activity. [Related pubchem assays (depositor defined):AID488944]; format: functional; conditions: Homo sapiens
[8] = HEK293 cell cytotoxicity, dose response, cytotoxicity control, plate reader, cherry-picked samples (AID 743446); format: functional, cell-based
[9] = biological target: T1, Microphthalmia-associated transcription factor (Homo sapiens, UniProt O75030); assay: TRPM1 promoter luciferase signal decrease, dose response, MITF inhibitor project, cell-based, SK-MEL-5, cherry-picked, set 3 (AID 493073); format: functional
T1 sequence (O75030 whole entry): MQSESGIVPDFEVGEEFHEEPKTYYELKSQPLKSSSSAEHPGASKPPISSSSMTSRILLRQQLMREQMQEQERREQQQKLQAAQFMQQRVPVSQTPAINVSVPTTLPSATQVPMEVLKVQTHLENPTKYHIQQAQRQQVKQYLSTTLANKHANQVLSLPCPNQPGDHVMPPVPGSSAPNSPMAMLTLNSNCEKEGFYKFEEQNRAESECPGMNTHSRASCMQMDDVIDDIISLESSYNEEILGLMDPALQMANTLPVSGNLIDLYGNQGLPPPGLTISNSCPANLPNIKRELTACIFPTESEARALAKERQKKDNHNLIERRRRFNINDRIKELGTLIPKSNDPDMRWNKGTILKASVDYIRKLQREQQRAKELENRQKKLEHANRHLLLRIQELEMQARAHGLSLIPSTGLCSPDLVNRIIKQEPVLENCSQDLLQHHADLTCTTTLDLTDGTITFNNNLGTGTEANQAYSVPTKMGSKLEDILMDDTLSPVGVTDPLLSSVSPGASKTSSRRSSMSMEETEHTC

[10] = A549 cell cytotoxicity, dose response, cytotoxicity control, plate reader, cherry-pick, antagonist series (AID 743412); format: functional, cell-based
[11] = MC4R antagonists, dose response, counter-screen for LGR2 antagonist project, cell-based, plate reader, cherry pick (AID 743444); format: functional;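 further: transfected HEK 293 cells stimulated with alpha-MSH peptide; potency of inhibitors of the alpha-MSH evoked signal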
[12] = LGR2 antagonists, dose response, cell-based, HEK293, CRE-luciferase reporter, cherry pick, set 2 (AID 743343); format: functional;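 further: transfected cells were stimulated with diluted bursicon conditioned medium after compound addition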
[13] = HepG2 cell cytotoxicity, dose response, cytotoxicity control, plate reader, cherry-pick, antagonist series (AID 743416); format: functional, cell-based
Streptokinase A = biological target: T2, Streptokinase A (Streptococcus pyogenes serotype M1, UniProt P10520); assay: S. pyogenes streptokinase expression inhibitors, potency, dose response, plasminogen activation absorbance, OD405 (AID 1914); format: functional, Streptococcus pyogenes M1 GAS;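 further: secreted streptokinase activity via plasminogen activation per viability signal from cell pellet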
T2 sequence (P10520 whole entry): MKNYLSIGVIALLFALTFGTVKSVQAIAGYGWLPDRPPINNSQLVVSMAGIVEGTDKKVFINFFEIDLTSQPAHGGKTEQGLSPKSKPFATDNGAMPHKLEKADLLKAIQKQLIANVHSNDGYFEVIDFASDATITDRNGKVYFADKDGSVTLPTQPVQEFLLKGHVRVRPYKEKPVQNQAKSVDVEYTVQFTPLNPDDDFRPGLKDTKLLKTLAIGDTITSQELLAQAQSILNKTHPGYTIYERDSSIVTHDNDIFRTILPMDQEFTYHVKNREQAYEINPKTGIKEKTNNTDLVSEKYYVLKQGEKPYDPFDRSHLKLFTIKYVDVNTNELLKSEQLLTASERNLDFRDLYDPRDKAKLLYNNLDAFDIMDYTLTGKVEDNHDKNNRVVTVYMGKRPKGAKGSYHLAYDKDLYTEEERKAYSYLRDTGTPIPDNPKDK

[14] = tested on: Streptococcus sp. 'group A'; assay: growth inhibition of control SK(-) GAS strain, dose response, counter-screen for streptokinase expression inhibitor project, luminescence, kanamycin, BacTiterGlo, confirmation (AID 1900); format: functional, organism-based
Escherichia coli = assay: microbe, parasite or virus in culture
Streptococcus = assay: Group A Streptococcus viability loss, dose response, counter-screen for streptokinase expression inhibitor project, luminescence, BacTiterGlo (AID 1915); format: functional, organism-based;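 further: potency for reduction of bacterial viability or growth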
[15] = biological target: Glyceraldehyde-3-phosphate dehydrogenase (Homo sapiens, UniProt P04406)
Glyceraldehyde-3-phosphate dehydrogenase, sequence (P04406 whole entry): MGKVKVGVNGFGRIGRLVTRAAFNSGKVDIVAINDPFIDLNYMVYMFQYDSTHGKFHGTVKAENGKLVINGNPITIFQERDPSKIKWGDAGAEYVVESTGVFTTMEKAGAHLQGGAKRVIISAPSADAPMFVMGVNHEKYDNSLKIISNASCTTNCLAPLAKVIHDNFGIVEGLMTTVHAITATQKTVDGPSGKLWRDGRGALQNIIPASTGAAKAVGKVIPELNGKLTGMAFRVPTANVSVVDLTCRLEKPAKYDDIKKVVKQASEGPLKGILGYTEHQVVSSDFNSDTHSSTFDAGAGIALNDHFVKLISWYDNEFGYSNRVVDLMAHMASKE

[16] = biological target: T3, Dual specificity protein phosphatase 6 (Rattus norvegicus, UniProt Q64346)
T3 sequence (Q64346 whole entry): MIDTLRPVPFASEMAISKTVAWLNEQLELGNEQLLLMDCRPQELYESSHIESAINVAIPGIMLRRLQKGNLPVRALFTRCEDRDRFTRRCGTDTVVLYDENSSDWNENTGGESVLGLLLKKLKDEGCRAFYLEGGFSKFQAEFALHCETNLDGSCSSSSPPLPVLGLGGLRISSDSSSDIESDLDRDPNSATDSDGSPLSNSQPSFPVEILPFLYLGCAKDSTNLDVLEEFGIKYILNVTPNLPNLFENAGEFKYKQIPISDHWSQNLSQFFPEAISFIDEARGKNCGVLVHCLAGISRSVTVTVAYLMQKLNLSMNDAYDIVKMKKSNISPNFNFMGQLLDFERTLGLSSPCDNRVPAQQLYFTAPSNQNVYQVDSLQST

[17] = biological target: T3, Dual specificity protein phosphatase 6; format: functional
[18] = biological target: Heat shock 70 kDa protein 1A (Homo sapiens, UniProt P0DMV8); assay: Hsp70 inhibitors, SAR follow-up, biochemical, fluorescence polarization (AID 1072)
Heat shock 70 kDa protein 1A, sequence (P0DMV8 whole entry): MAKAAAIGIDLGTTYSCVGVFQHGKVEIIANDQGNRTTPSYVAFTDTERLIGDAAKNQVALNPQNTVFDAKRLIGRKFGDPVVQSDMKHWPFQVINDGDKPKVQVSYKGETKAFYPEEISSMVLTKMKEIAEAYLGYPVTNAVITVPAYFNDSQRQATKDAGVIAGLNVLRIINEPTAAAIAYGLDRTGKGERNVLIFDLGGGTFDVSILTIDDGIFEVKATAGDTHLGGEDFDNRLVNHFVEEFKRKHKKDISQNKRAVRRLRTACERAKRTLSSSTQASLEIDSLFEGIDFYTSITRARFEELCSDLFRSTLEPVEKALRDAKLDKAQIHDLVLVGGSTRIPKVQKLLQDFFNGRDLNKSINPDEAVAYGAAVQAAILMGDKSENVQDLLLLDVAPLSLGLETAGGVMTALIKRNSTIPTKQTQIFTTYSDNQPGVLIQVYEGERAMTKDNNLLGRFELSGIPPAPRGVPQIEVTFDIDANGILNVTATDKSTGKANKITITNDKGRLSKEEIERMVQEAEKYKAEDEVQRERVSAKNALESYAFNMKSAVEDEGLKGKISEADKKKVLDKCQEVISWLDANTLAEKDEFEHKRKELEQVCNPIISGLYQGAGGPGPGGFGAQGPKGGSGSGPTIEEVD

[19] = biological target: Heat shock cognate 71 kDa protein (Homo sapiens, UniProt P11142); assay: In Vitro Hsc70 Dose Response Fluorescence Polarization Assay. [Related pubchem assays: 1072 ]
Heat shock cognate 71 kDa protein, sequence (P11142 whole entry): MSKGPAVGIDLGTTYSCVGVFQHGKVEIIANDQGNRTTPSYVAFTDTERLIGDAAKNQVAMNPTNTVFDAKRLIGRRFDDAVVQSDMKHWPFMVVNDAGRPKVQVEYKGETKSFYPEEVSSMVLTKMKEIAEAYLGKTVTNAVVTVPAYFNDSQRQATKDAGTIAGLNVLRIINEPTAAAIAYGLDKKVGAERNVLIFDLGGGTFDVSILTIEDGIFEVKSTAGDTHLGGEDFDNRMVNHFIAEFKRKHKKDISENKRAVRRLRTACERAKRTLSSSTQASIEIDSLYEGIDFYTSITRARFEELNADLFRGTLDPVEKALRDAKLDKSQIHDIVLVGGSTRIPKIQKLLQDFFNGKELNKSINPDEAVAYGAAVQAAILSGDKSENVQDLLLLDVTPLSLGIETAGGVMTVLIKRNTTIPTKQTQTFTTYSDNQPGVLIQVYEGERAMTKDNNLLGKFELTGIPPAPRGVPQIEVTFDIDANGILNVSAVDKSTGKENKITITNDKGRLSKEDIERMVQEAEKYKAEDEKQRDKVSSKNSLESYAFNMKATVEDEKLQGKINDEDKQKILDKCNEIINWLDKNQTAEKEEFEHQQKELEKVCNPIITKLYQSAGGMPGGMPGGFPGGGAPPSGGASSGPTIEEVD

[20] = biological target: T4, Tyrosine-protein phosphatase non-receptor type 7 (Homo sapiens, UniProt P35236); format: functional
T4 sequence (P35236 whole entry): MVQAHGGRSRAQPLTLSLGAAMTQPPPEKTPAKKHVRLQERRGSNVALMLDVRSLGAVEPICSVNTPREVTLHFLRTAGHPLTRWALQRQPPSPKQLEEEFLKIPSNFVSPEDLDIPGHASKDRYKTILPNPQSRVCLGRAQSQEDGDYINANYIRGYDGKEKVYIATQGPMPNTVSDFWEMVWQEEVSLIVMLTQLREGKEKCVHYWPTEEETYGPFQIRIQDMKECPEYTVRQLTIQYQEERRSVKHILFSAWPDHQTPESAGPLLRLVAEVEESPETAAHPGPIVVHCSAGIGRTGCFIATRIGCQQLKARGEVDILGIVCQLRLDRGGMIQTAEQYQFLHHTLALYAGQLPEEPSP

**Q.** Which results are given for `COc1cccc2sc(Nc3nnc(-c4cccs4)o3)nc12`?
**A.** EC50 [1]: 415 nM (active); CC50 [2]: 11.2 µM (active); IC50 [3]: 15.6 µM (active); CC50 [4]: 11.1 µM (active); CC50 [5]: > 20 µM (active); EC50 [6]: 2.96 µM (active); CC50 [7]: 27.8 µM (active)

**Q.** With `Cc1ccccc1-c1nc(-c2ccccn2)no1` as the compound, how does the AC50 (A-375) read?
**A.** 14.8 µM (active)

**Q.** What about the AC50 [8] of the same compound?
**A.** 17.1 µM (active)

**Q.** What about the AC50 [9] of the same compound?
**A.** 4.18 µM (active)

**Q.** What about the AC50 [10] of the same compound?
**A.** 12.9 µM (active)

**Q.** What about the AC50 [11] of the same compound?
**A.** 1.8 µM (active)

**Q.** And the AC50 [12]?
**A.** 1.81 µM (active)

**Q.** What about the AC50 [13] of the same compound?
**A.** 23 µM (active)

**Q.** Which EC50 (Streptokinase A) does the source give for `Cc1ccc(NC(=O)NCc2ccccn2)cc1Cl` here?
**A.** > 150 µM (not active)

**Q.** And the EC50 [14]?
**A.** > 150 µM (not active)

**Q.** And the AC50 (Escherichia coli)?
**A.** 343 µM (active)

**Q.** What about the EC50 (Streptococcus) of the same compound?
**A.** > 150 µM (not active)

**Q.** With `CCOc1cc2c(c([N+](=O)[O-])c1)NC(C(=O)O)C1CC=CC21` (centres undefined) as the compound, how does the IC50 [15] read?
**A.** > 100 µM (not active)

**Q.** And the IC50 [16]?
**A.** > 100 µM (inactive)

**Q.** And the IC50 [17]?
**A.** > 100 µM (inactive)

**Q.** What about the IC50 [18] of the same compound?
**A.** > 100 µM (not active)

**Q.** And the IC50 [19]?
**A.** > 100 µM (not active)

**Q.** And the IC50 [20]?
**A.** > 100 µM (not active)
